Patent US10087167B2, “Benzofurans substituted with secondary benzamide as HCV inhibitors” (priority 2015, dated 2018)

Tested on: HCV
Experiment: not given
Conditions: extended dosing of the combination regimens; cited from earlier work

Compound	hepatic toxicity
CNC(=O)c1c(-c2ccc(F)cc2)oc2cc(N(CCO)S(C)(=O)=O)c(C3CC3)cc12 [HCV-796]	hepatic toxicity observed

Tested on: HCV
Experiment: not given
Conditions: combination therapy; cited from earlier work

Compound	sustained efficacy
alpha-interferon and ribavirin	40 % of patients

Tested on: HCV replicon
Experiment: HCV replicon luciferase assay
Format: cell-based
Conditions: Hepatitis C virus, Huh-7, 72 h
Procedure: The cell lines used to evaluate compounds consist of a human hepatocyte derived cell line (Huh-7) that constitutively expresses a genotype 1b (Con-1) HCV replicon or a genotype 1b (Con-1) HCV replicon with an asparagine replacing the cysteine at amino acid 316, or a genotype 2a (JFH-1) replicon, containing a Renilla luciferase reporter gene. These cells were maintained in Dulbecco's modified Eagle medium (DMEM) containing 10% FBS, 100 U/mL penicillin/streptomycin and 1.0 mg/mL G418.
To evaluate compound efficacy, titrated compounds were transferred to sterile 384-well tissue culture treated plates, and the plates were seeded with HCV replicon cells (50 μL at a density of 2.4×10^3 cells/well) in DMEM containing 4% FBS (final DMSO concentration at 0.5%). After 3 days incubation at 37° C., cells were analyzed for Renilla Luciferase activity using the EnduRen substrate (Promega cat #E6485) according to the manufacturer's directions. Briefly, the EnduRen substrate was diluted in DMEM and then added to the plates to a final concentration of 7.5 μM. The plates were incubated for at least 1 h at 37° C. then read on a Viewlux Imager (PerkinElmer) using a luminescence program. The 50% effective concentration (EC50) was calculated using the four-parameter logistic formula noted above.
Compound EC50 data is expressed as A: <100 nM; B=100-1000 nM; C>1000 nM).

Compound	EC50 [nM]
CCN(CC)c1cc2oc(-c3ccc(F)cc3)c(C(=O)NC)c2cc1-c1cccc(C(=O)N2CC(F)(F)C2)c1 [Compound 1001]	45.4
CCNc1cc2oc(-c3ccc(F)cc3)c(C(=O)NC)c2cc1-c1cccc(C(=O)N2CCNC(C#N)C2)c1 (stereo not shown) [Compound 2001]	100 to 1000
CCN(c1cc2oc(-c3ccc(F)cc3)c(C(=O)NC)c2cc1-c1cccc(C(=O)N2CCN(C(=O)OC(C)(C)C)C[C@@H]2C#N)c1)S(C)(=O)=O [Compound 3001]	< 100
CCN(c1cc2oc(-c3ccc(F)cc3)c(C(=O)NC)c2cc1-c1cccc(C(=O)N2CCN(C(=O)OC(C)(C)C)C[C@H]2C#N)c1)S(C)(=O)=O [Compound 3002]	< 100
CCN(c1cc2oc(-c3ccc(F)cc3)c(C(=O)NC)c2cc1-c1cccc(C(=O)N2CCN(S(C)(=O)=O)C(C#N)C2)c1)S(C)(=O)=O (stereo not shown) [Compound 3003]	25.2
CNC(=O)c1c(-c2ccc(F)cc2)oc2cc(N(CCF)S(C)(=O)=O)c(-c3cccc(C(=O)N4CCN(C(=O)C(F)(F)F)CC4)c3)cc12 [Compound 4001]	> 1000
CNC(=O)c1c(-c2ccc(F)cc2)oc2cc(N(CCF)S(C)(=O)=O)c(-c3cccc(C(=O)N4CCN(C5CC5)CC4)c3)cc12 [Compound 4002]	< 100
CNC(=O)c1c(-c2ccc(F)cc2)oc2cc(N(CCF)S(C)(=O)=O)c(-c3cccc(C(=O)N4CCN(c5ncccn5)CC4)c3)cc12 [Compound 4003]	< 100
CNC(=O)c1c(-c2ccc(F)cc2)oc2cc(N(CCF)S(C)(=O)=O)c(-c3cccc(C(=O)N4CCN(C(=O)N5CCOCC5)CC4)c3)cc12 [Compound 4004]	1690
CNC(=O)c1c(-c2ccc(F)cc2)oc2cc(N(CCF)S(C)(=O)=O)c(-c3cccc(C(=O)N4CCN(C(=O)OC(C)(C)C)CC4CC(=O)OC)c3)cc12 (stereo not shown) [Compound 4005]	< 100
CNC(=O)c1c(-c2ccc(F)cc2)oc2cc(N(CCF)S(C)(=O)=O)c(-c3cccc(C(=O)N4CCN(/C(=N/C#N)c5ccccc5)CC4)c3)cc12 [Compound 4006]	100 to 1000
CNC(=O)c1c(-c2ccc(F)cc2)oc2cc(N(CCF)S(C)(=O)=O)c(-c3cccc(C(=O)N4CCN(C(=C(C#N)C#N)c5ccccc5)CC4)c3)cc12 [Compound 4007]	< 100
CNC(=O)c1c(-c2ccc(F)cc2)oc2cc(N(CCF)S(C)(=O)=O)c(-c3cccc(C(=O)N4CCN(c5nnnn5-c5ccccc5)CC4)c3)cc12 [Compound 4008]	107
CNC(=O)c1c(-c2ccc(F)cc2)oc2cc(N(CCF)S(C)(=O)=O)c(-c3cccc(C(=O)N4CCN(c5nnnn5-c5ccccc5)C[C@@H]4C)c3)cc12 [Compound 4009]	< 100
CNC(=O)c1c(-c2ccc(F)cc2)oc2cc(N(CCF)S(C)(=O)=O)c(-c3cccc(C(=O)N4CCN(c5nnnn5-c5ccccc5)[C@H](C)C4)c3)cc12 [Compound 4010]	< 100
CNC(=O)c1c(-c2ccc(F)cc2)oc2cc(N(CCF)S(C)(=O)=O)c(-c3cccc(C(=O)N4CCC(=C(c5ccccc5)c5ccccc5)CC4)c3)cc12 [Compound 4011]	< 100

Compound	EC50 [nM]
CNC(=O)c1c(-c2ccc(F)cc2)oc2cc(N(CCF)S(C)(=O)=O)c(-c3cccc(C(=O)N4CCC(=C(c5ccccc5)c5nnc(C)o5)CC4)c3)cc12 [Compound 4012]	27.1
CNC(=O)c1c(-c2ccc(F)cc2)oc2cc(N(CCF)S(C)(=O)=O)c(-c3cccc(C(=O)N4CCC(=C(C#N)c5ccccc5)CC4)c3)cc12 [Compound 4013]	< 100
CNC(=O)c1c(-c2ccc(F)cc2)oc2cc(N(CCF)S(C)(=O)=O)c(-c3cccc(C(=O)N4CCC(=C(C#N)c5ccccn5)CC4)c3)cc12 [Compound 4014]	< 100
CNC(=O)c1c(-c2ccc(F)cc2)oc2cc(N(CCF)S(C)(=O)=O)c(-c3cccc(C(=O)N4CCCC4C(F)(F)F)c3)cc12 (stereo not shown) [Compound 4015]	< 100
CNC(=O)c1c(-c2ccc(F)cc2)oc2cc(N(CCF)S(C)(=O)=O)c(-c3cccc(C(=O)N4CCCC4c4ccc(N(C)C)cc4)c3)cc12 (stereo not shown) [Compound 4016]	84.8
CNC(=O)c1c(-c2ccc(F)cc2)oc2cc(N(CCF)S(C)(=O)=O)c(-c3cccc(C(=O)N4CCC[C@@H]4C(N)=O)c3)cc12 [Compound 4017]	> 1000
CNC(=O)c1c(-c2ccc(F)cc2)oc2cc(N(CCF)S(C)(=O)=O)c(-c3cccc(C(=O)N4CC(O)C[C@H]4C(=O)OCc4ccccc4)c3)cc12 (stereo partly shown) [Compound 4018]	100 to 1000
CNC(=O)c1c(-c2ccc(F)cc2)oc2cc(N(CCF)S(C)(=O)=O)c(-c3cccc(C(=O)N4CC(F)(F)C[C@H]4C(N)=O)c3)cc12 [Compound 4019]	> 1000
CNC(=O)c1c(-c2ccc(F)cc2)oc2cc(N(CCF)S(C)(=O)=O)c(-c3cccc(C(=O)N4CC[C@H](F)C4)c3)cc12 [Compound 4020]	45
CNC(=O)c1c(-c2ccc(F)cc2)oc2cc(N(CCF)S(C)(=O)=O)c(-c3cccc(C(=O)N4CC[C@@H](C#N)C4)c3)cc12 [Compound 4021]	> 1000
CNC(=O)c1c(-c2ccc(F)cc2)oc2cc(N(CCF)S(C)(=O)=O)c(-c3cccc(C(=O)N4CCC(NC(=O)OC(C)(C)C)(C(F)(F)F)C4)c3)cc12 (stereo not shown) [Compound 4022]	< 100
CNC(=O)c1c(-c2ccc(F)cc2)oc2cc(N(CCF)S(C)(=O)=O)c(-c3cccc(C(=O)N4CCCC4c4nccs4)c3)cc12 (stereo not shown) [Compound 4023]	< 100
CNC(=O)c1c(-c2ccc(F)cc2)oc2cc(N(CCF)S(C)(=O)=O)c(-c3cccc(C(=O)N4CC[C@@H](F)C4)c3)cc12 [Compound 4024]	76.5
CNC(=O)c1c(-c2ccc(F)cc2)oc2cc(N(CCF)S(C)(=O)=O)c(-c3cccc(C(=O)N4CC(F)(F)C(F)(F)C4)c3)cc12 [Compound 4025]	< 100
CNC(=O)c1c(-c2ccc(F)cc2)oc2cc(N(CCF)S(C)(=O)=O)c(-c3cccc(C(=O)N4CCNC(=O)C45CCCC5)c3)cc12 [Compound 4026]	< 100
CCOC(=O)CC1C(=O)NCCN1C(=O)c1cccc(-c2cc3c(C(=O)NC)c(-c4ccc(F)cc4)oc3cc2N(CCF)S(C)(=O)=O)c1 (stereo not shown) [Compound 4027]	> 1000
